According to paper PMC10221314 (Pharmaceuticals, 2023):
“And” between values parts separate entries of the source, which are not always exact repeats. Identical values can stand only once.

These compounds were tested against T1, FXR (Homo sapiens, UniProt Q96RI1) (assay: Yeast one-hybrid assay of FXR antagonistic activity in HEK-293T cells). Conditions: HEK-293T cells; CDCA (50 μM) as agonist; mean ± SE of three independent tests.
T1 construct: a fusion plasmid of Gal4 DBD-NR-LBD, which included PPARα, PPARβ, PPARγ, RXRα, RXRβ, RXRγ, LXRα, LXRβ, GPBAR, PXR, and FXR; expressed in transfected cells; host or cells: HEK-293T
T1 sequence (Q96RI1 262-486 limits assumed): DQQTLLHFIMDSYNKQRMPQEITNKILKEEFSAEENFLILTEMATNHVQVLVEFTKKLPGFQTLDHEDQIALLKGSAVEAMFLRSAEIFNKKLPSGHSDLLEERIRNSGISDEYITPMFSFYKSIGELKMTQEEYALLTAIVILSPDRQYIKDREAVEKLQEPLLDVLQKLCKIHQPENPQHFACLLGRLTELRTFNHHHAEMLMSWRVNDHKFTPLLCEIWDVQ
Format: cell-based
Protocol: Cell counting: HEK-293T cells in logarithmic growth phase were digested with 0.25% trypsin, collected, and centrifuged. The trypsin-containing medium was discarded, and 2 mL of fresh phenol red-free DMEM medium containing 5% fetal bovine serum was added. The cells were then mixed with the medium to prepare a cell suspension and counted on a cell counting plate.
Cell plating: A determined number of cells were taken from the cell suspension, diluted with phenol red-free DMEM medium containing 5% fetal bovine serum, and plated at a concentration of 10,000 cells per well (100 µL medium) in a 96-well plate. The plate was then incubated at 37 °C and 5% CO2 for 24 h.
Cell transfection: Fresh phenol red-free DMEM medium was taken in a sterile environment, and the previously extracted pFXR-Binding plasmid and PG4.35[luc2P-9XGA4UAS-Hygro] plasmid were added. The mixture was stirred and allowed to stand at 23 °C for 3 min. Then, a 3% amount of transfection reagent was added to the mixture, and it was allowed to stand at 23 °C for 15 min. The mixture was then added to the 96-well plate at a volume of 10 µL per well and incubated at 37 °C in a 5% CO2 environment for 24 h.
The OA derivatives were prepared as 10 mM DMSO stock solutions and further diluted in a concentration gradient, with 10 µL added to each well. The final concentrations of the derivatives ranged from 10 µM to 0.03 µM, with 7 concentration gradients using […] dilution. The test was set with 3 duplicated wells.
Antagonism activity test: The firefly-Renilla Dual Fluorescence Assay Kit (Promega, #E2940, Madison, WI, USA) was used to measure the antagonism activity of the OA derivatives. Firstly, the firefly fluorescence reagent was added to the 96-well plate at a volume of 70 µL per well and shaken in darkness for 15 min. Then, the fluorescence intensity was measured at a wavelength of 645 ± 30 nm in a microplate reader (BioTek, Winooski, VT, USA). Next, the volume of Renilla reagent was added to the 96-well plate at a volume of 70 µL per well and shaken in darkness for 15 min. The fluorescence intensity was then measured at a wavelength of 525 ± 20 nm.
Data processing: The fluorescence data of firefly were divided by the fluorescence data of Renilla to remove errors, and the antagonism efficiency was calculated using the following formula: antagonism efficiency (%) = [1 − (FCompds. − FDMSO)/(FCDCA − FDMSO)] × 100%. In the formula, F represents fluorescence intensity. The antagonistic efficiency data were obtained as a concentration–effect curve using Graphpad Prism 8.0 software, and the corresponding IC50 value was calculated.

**Q.** With `CC1(C)CC[C@]2(C(=O)O)CC[C@]3(C)[C@H]([C@H](OC(=O)C[C@@H](NC(=O)OC(C)(C)C)C(=O)OC(C)(C)C)CC4[C@@]5(C)CC[C@H](O)C(C)(C)C5CC[C@]43C)[C@@H]2C1` (stereo partly drawn) [Compound 9b, 3-hydroxy-12β-(3′-((tert-butoxycarbonyl)amino)-4′-(tert-butoxy)-D-aspartate)oxy-13H-olean-28-oic acid] as the compound, how does the IC50 read?
**A.** Its IC50 is 2390 ± 350 nM.

**Q.** With `CC1(C)CCC2(C(=O)O)CCC3(C)C(C(OC(=O)CCC(NC(=O)OC(C)(C)C)C(=O)OC4CCCC4)CC4C5(C)CCC(O)C(C)(C)C5CCC43C)C2C1` [Compound 20g, 3β-hydroxy-12β-(4′-((tert-butoxycarbonyl)amide)-5′-cyclopentyloxy-L-glutamate)oxy-13H-olean-28-oic acid] as the compound, how does the IC50 read?
**A.** The IC50 was 820 ± 110 nM.

**Q.** Which IC50 does the source give for `CC1(C)CC[C@]2(C(=O)O)CC[C@]3(C)[C@H]([C@H](OC(=O)CC[C@H](NC(=O)OC(C)(C)C)C(=O)O)CC4[C@@]5(C)CC[C@H](O)C(C)(C)C5CC[C@]43C)[C@@H]2C1` (stereo partly drawn) [Compound 11b, 3-hydroxy-12β-((S)-4′-((tert-butoxycarbonyl)amino)-4′-carboxybutanoyl)oxy-13H-olean-28-oic acid] here?
**A.** Its IC50 is 7650 ± 350 nM.

**Q.** For `CC1(C)CCC2(C(=O)O)CCC3(C)C(C(OC(=O)CCC(NC(=O)OC4CCCC4)C(=O)OC(C)(C)C)CC4C5(C)CCC(O)C(C)(C)C5CCC43C)C2C1` [Compound 19g, 3β-hydroxy-12β-(4′-(((cyclopentyloxy)carbonyl)amide)-5′-(tert-butoxy)-L-glutamate)oxy-13H-olean-28-oic acid], which IC50 is on record?
**A.** Its IC50 is 720 ± 180 nM.

**Q.** `CC1(C)CC[C@]2(C(=O)O)CC[C@]3(C)[C@H]([C@H](OC(=O)C[C@@H](CC(=O)OC(C)(C)C)NC(=O)OC(C)(C)C)CC4[C@@]5(C)CC[C@H](O)C(C)(C)C5CC[C@]43C)[C@@H]2C1` (stereo partly drawn) [Compound 10c, 3-hydroxy-12β-((S)-3′-((tert-butoxycarbonyl)amino)-5′-(tert-butoxy)-5-oxopentanoyl)oxy-13H-olean-28-oic acid] was tested. Which IC50 did it give?
**A.** The IC50 was 1340 ± 230 nM.

**Q.** With `CC(C)OC(=O)NC(CCC(=O)OC1CC2C3(C)CCC(O)C(C)(C)C3CCC2(C)C2(C)CCC3(C(=O)O)CCC(C)(C)CC3C12)C(=O)OC(C)(C)C` [Compound 19d, 3β-hydroxy-12β-(4′-((isopropoxycarbonyl)amide)-5′-(tert-butoxy)-L-glutamate)oxy-13H-olean-28-oic acid] as the compound, how does the IC50 read?
**A.** The IC50 was 400 to 500 nM and 470 nM.

**Q.** `CC(C)COC(=O)NC(CCC(=O)OC1CC2C3(C)CCC(O)C(C)(C)C3CCC2(C)C2(C)CCC3(C(=O)O)CCC(C)(C)CC3C12)C(=O)OC(C)(C)C` [Compound 19e, 3β-hydroxy-12β-(4′-((isobutoxycarbonyl)amide)-5′-(tert-butoxy)-L-glutamate)oxy-13H-olean-28-oic acid] was tested. Which IC50 did it give?
**A.** The IC50 was 920 ± 140 nM.

**Q.** How did the IC50 turn out when `CC1(C)CC[C@]2(C(=O)O)CC[C@]3(C)[C@H]([C@H](OC(=O)CC[C@@H](NC(=O)OC(C)(C)C)C(=O)OC(C)(C)C)CC4[C@@]5(C)CC[C@H](O)C(C)(C)C5CC[C@]43C)[C@@H]2C1` (stereo partly drawn) [Compound 10a, 3-hydroxy-12β-(4′-((tert-butoxycarbonyl)amino)-5′-(tert-butoxy)-D-glutamate)oxy-13H-olean-28-oic acid] was run?
**A.** Its IC50 is 1950 ± 270 nM.

**Q.** Which IC50 does the source give for `CC1(C)CC[C@]2(C(=O)O)CC[C@]3(C)[C@H]([C@H](OC(=O)[C@@H](CCC(=O)OC(C)(C)C)NC(=O)OC(C)(C)C)CC4[C@@]5(C)CC[C@H](O)C(C)(C)C5CC[C@]43C)[C@@H]2C1` (stereo partly drawn) [Compound 10d, 3-hydroxy-12β-(2′-((tert-butoxycarbonyl)amino)-5′-(tert-butoxy)-D-glutamate)oxy-13H-olean-28-oic acid] here?
**A.** Its IC50 is 3670 ± 390 nM.

**Q.** With `CC(C)OC(=O)C(CCC(=O)OC1CC2C3(C)CCC(O)C(C)(C)C3CCC2(C)C2(C)CCC3(C(=O)O)CCC(C)(C)CC3C12)NC(=O)OC(C)(C)C` [Compound 20d, 3β-hydroxy-12β-(4′-((tert-butoxycarbonyl)amide)-5′-isopropoxy-L-glutamate)oxy-13H-olean-28-oic acid] as the compound, how does the IC50 read?
**A.** The IC50 was 550 ± 90 nM.

**Q.** How did the IC50 turn out when `COC(=O)NC(CCC(=O)OC1CC2C3(C)CCC(O)C(C)(C)C3CCC2(C)C2(C)CCC3(C(=O)O)CCC(C)(C)CC3C12)C(=O)OC(C)(C)C` [Compound 19a, 3β-hydroxy-12β-(4′-((methoxycarbonyl)amide)-5′-(tert-butoxy)-L-glutamate)oxy-13H-olean-28-oic acid] was run?
**A.** The IC50 was 550 ± 220 nM.

**Q.** With `COC(=O)C(CCC(=O)OC1CC2C3(C)CCC(O)C(C)(C)C3CCC2(C)C2(C)CCC3(C(=O)O)CCC(C)(C)CC3C12)NC(=O)OC(C)(C)C` [Compound 20a, 3β-hydroxy-12β-(4′-((tert-butoxycarbonyl)amide)-5′-methoxy-L-glutamate)oxy-13H-olean-28-oic acid] as the compound, how does the IC50 read?
**A.** The IC50 was 1100 ± 190 nM.

**Q.** `CCC(C)OC(=O)NC(CCC(=O)OC1CC2C3(C)CCC(O)C(C)(C)C3CCC2(C)C2(C)CCC3(C(=O)O)CCC(C)(C)CC3C12)C(=O)OC(C)(C)C` [Compound 19f, 3β-hydroxy-12β-(4′-((sec-butoxycarbonyl)amide)-5′-(tert-butoxy)-L-glutamate)oxy-13H-olean-28-oic acid] was tested. Which IC50 did it give?
**A.** Its IC50 is 600 ± 40 nM.

**Q.** With `CC1(C)CC[C@]2(C(=O)O)CC[C@]3(C)[C@H]([C@H](OC(=O)CC[C@H](N)C(=O)O)CC4[C@@]5(C)CC[C@H](O)C(C)(C)C5CC[C@]43C)[C@@H]2C1` (stereo partly drawn) [Compound 11c, 3-hydroxy-12β-((S)-4′-amino-4′-carboxybutanoyl)oxy-13H-olean-28-oic acid] as the compound, how does the IC50 read?
**A.** The IC50 was 21300 ± 2600 nM.

**Q.** Which IC50 does the source give for `CC1(C)CC[C@]2(C(=O)O)CC[C@]3(C)[C@H]([C@H](OC(=O)CC[C@H](N)C(=O)OC(C)(C)C)CC4[C@@]5(C)CC[C@H](O)C(C)(C)C5CC[C@]43C)[C@@H]2C1` (stereo partly drawn) [Compound 11a, 3-hydroxy-12β-((S)-4′-amino-5′-(tert-butoxy)-5-oxopentanoyl)oxy-13H-olean-28-oic acid] here?
**A.** The IC50 was 2950 ± 680 nM.

**Q.** For `CCC(C)OC(=O)C(CCC(=O)OC1CC2C3(C)CCC(O)C(C)(C)C3CCC2(C)C2(C)CCC3(C(=O)O)CCC(C)(C)CC3C12)NC(=O)OC(C)(C)C` [Compound 20f, 3β-hydroxy-12β-(4′-((tert-butoxycarbonyl)amide)-5′-(sec-butoxy)-L-glutamate)oxy-13H-olean-28-oic acid], which IC50 is on record?
**A.** The IC50 was 1010 ± 180 nM.

**Q.** How did the IC50 turn out when `CC(C)COC(=O)C(CCC(=O)OC1CC2C3(C)CCC(O)C(C)(C)C3CCC2(C)C2(C)CCC3(C(=O)O)CCC(C)(C)CC3C12)NC(=O)OC(C)(C)C` [Compound 20e, 3β-hydroxy-12β-(4′-((tert-butoxycarbonyl)amide)-5′-isobutoxy-L-glutamate)oxy-13H-olean-28-oic acid] was run?
**A.** The IC50 was 1000 ± 170 nM.

**Q.** `CCOC(=O)C(CCC(=O)OC1CC2C3(C)CCC(O)C(C)(C)C3CCC2(C)C2(C)CCC3(C(=O)O)CCC(C)(C)CC3C12)NC(=O)OC(C)(C)C` [Compound 20b, 3β-hydroxy-12β-(4′-((tert-butoxycarbonyl)amide)-5′-ethoxy-L-glutamate)oxy-13H-olean-28-oic acid] was tested. Which IC50 did it give?
**A.** The IC50 was 1020 ± 210 nM.

**Q.** `CCOC(=O)NC(CCC(=O)OC1CC2C3(C)CCC(O)C(C)(C)C3CCC2(C)C2(C)CCC3(C(=O)O)CCC(C)(C)CC3C12)C(=O)OC(C)(C)C` [Compound 19b, 3β-hydroxy-12β-(4′-((ethoxycarbonyl)amide)-5′-(tert-butoxy)-L-glutamate)oxy-13H-olean-28-oic acid] was tested. Which IC50 did it give?
**A.** The IC50 was 570 ± 360 nM.

**Q.** Which IC50 does the source give for `CC1(C)CCC2(C(=O)O)CCC3(C)C(C(OC(=O)CCC(NC(=O)Oc4ccccc4)C(=O)OC(C)(C)C)CC4C5(C)CCC(O)C(C)(C)C5CCC43C)C2C1` [Compound 19h, 3β-hydroxy-12β-(4′-((phenoxycarbonyl)amide)-5′-(tert-butoxy)-L-glutamate)oxy-13H-olean-28-oic acid] here?
**A.** The IC50 was 2220 nM and 2180 nM.
